Entries after “also recorded” stand apart in the source; their conditions may differ. Values belong to the compound of their own block, whether it stands above or below them.
Assays:
Chk1/p53 interaction = molecular target: T1, Chk1/p53 interaction (Homo sapiens, UniProt O14757); test: beta-lactamase PCA (BLA PCA) for Chk1/p53 in HEK293E cells; format: cell-based; conditions: HEK293E cells treated with 300 nM camptothecin; 10 micromolar DBH, 50 micromolar Go6976
T1 construct: expressed in transfected cells; host or cells: HEK293E
T1 sequence (O14757 1-476): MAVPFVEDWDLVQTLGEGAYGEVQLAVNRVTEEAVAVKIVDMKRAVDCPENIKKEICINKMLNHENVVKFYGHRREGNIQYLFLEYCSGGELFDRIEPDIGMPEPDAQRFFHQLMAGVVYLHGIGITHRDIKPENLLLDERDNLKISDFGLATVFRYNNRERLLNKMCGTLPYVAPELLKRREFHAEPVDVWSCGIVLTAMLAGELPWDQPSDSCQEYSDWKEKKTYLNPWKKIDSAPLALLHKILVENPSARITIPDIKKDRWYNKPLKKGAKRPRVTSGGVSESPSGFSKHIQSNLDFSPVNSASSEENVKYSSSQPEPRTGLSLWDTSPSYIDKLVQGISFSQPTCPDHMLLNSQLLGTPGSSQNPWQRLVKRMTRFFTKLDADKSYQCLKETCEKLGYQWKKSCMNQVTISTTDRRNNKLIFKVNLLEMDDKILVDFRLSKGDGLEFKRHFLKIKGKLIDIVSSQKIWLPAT
Experimental: For the BLA PCA, the genes of interest—which were known to be involved in DNA damage response pathways—were fused to BLA reporter fragments, and co-transfected in pairs (in 6 replicates) into HEK293E cells. Specifically, interactions between two key proteins, p53 and the checkpoint kinase, Chk1, were evaluated for their response to the DNA damaging agent camptothecin (CPT) and various known drugs or compounds. Full length cDNAs (sequence verified) encoding p53 [NM_000546] and Chk1 [NM_001274] were amplified by PCR and the resulting fragments fused in-frame to the 3′-end of BLA[1] or BLA[2] through a flexible 10 amino acid linker. The resulting BLA[1]-p53, BLA[2]-p53, and BLA[2]-Chk1 constructs contained an EBNA-1 origin for episomal replication in HEK293E cells, but no selectable markers for long term maintenance in cell culture. All constructs were sequenced to confirm the integrity of the reporter-gene fusion prior to use in assays. […] Hydrolysis of the beta-lactam ring by reconstituted BLA releases free coumarin which has a blue fluorescence. […] For each protein pair, the rate of hydrolysis of the substrate was determined immediately after addition of substrate by a kinetic assay on a Molecular Devices Gemini XS plate reader. Accumulated fluorescent substrate was excited at 345 nm and detected at 440 nm every 10 minutes for a 90 minute period. […]

p50/p65 complex = test: stable HEK293T p50/p65 YFP PCA cell line, nuclear translocation (N:C ratio); format: cell-based; conditions: 10 micromolar compound, 25 ng/ml TNF 30 minutes
Experimental: Stable cell lines represent the gold standard for HTS since the assays can be reconstructed at any time from frozen stocks of cells. […] First, cells were co-transfected with YFP[2]-p65 encoding vectors, and stable cell lines were selected using 100 micrograms/ml of Hygromycin B (Invitrogen). Selected cell lines were then transfected with YFP[1]-p50. Stable cell lines expressing YFP[1]-p50/YFP[2]-p65 were isolated following double antibiotic selection with 50 μg/ml Hygromycin B and 500 μg/ml Zeocin. Cell clones stably expressing the fusion genes were identified by immunoblot analysis and fluorescence microscopy. A single cell line of each transfectant was selected for further characterization. Fluorescence of these lines is stable over at least 25 passages (data not shown). A stable, MEK/ERK cell line—constructed as described below—was used as a control for TNF effects. Fugene 6 (Roche) was used for all the transfections according to manufacturer's directions. Cells stably expressing YFP[1]-p50/YFP[2]-p65 were seeded at 20,000 cells/well in black-walled poly-lysine coated 96 well plate (Greiner). Twenty-four hours later, the cells were incubated with human TNF-alpha (Roche) for 30 min. Nuclei were stained with Hoechst 33342 (Molecular Probes) at 10 micrograms/ml for 10 min. Cells were rinsed with HBSS (Invitrogen) and kept in the same buffer. Fluorescence was visualized and images were acquired using a Discovery-1 automated fluorescence imager (Molecular Devices, Inc.) equipped with excitation and emission filters 470/35 and 535/60, respectively. […] For the high throughput screening campaign described below, cells were pretreated with compounds (10 micromolar) for 60 minutes and then stimulated with TNFalpha for 30 minutes in the presence of drugs. Cells were then fixed with 2% formaldehyde in HBSS and subsequently stained with Hoechst 33342. All liquid handling was done using a Biomek FX (Beckman) instrument and images were acquired as described above. Images were analyzed using Image J. Translocation is assessed by calculating the nuclear/cytoplasmic ratio of the mean fluorescence intensity for a population of cells (denoted as n) over several images for a given condition.
Genesis Plus is a collection of 960 diverse compounds, and includes compounds with known toxicity or fluorescent properties. Inclusion of compounds with such properties is important in HTS assay validation, as they might complicate analysis. The final concentration of compounds in wells was 10 micromolar, and all wells contained 0.5% DMSO concentration. […] Following fixation and staining of nuclei, fluorescence was analyzed on the automated fluorescent microscopy platform (Discovery 1; Universal Imaging/Molecular Devices Corp.). […]

p53/p53 interaction = test: high-content IFP PCA for p53/p53, nuclear mean fluorescence; format: cell-based, human; conditions: Trichostatin A 0.5 micromolar; for effect on p53/p53 interaction (nuclear mean fluorescence) in the presence of CPT: 500 nM CPT 16 hours, MS-275 10 micromolar, HA 14-1 2 micromolar; for effect on p53/p53 interaction in both assays (absence and presence of CPT): unstimulated and 500 nM CPT-stimulated, LY294002 25 micromolar, SB 203580 25 micromolar, Geldanamycin 2.5 micromolar
Text: Open reading frames of full-length human p53 were fused in-frame to the 5′-end of IFP[1] and the 3′-end of IFP[2] to generate the following constructs in a pcDNA3.1 (Invitrogen) backbone: p53-IFP[1] and IFP[2]-p53. The final p53-IFP[1] construct contained a Zeocin selectable marker, while the IFP[2]-p53 construct contained a hygromycin selectable marker. All fusions were through a flexible linker encoding a 10-amino acid peptide (GlyGlyGlyGlySer)2, also referred to throughout as (GGGGS)2 (SEQ ID No.1). DNAs from recombinant constructs were isolated on a Beckman FX robotic workstation (Beckman Coulter, Fullerton, Calif.) using Qiagen Turbo BioRobot Prep kits or manually using Qiagen Midi Prep kits. Isolated DNAs were quantitated and then normalized to a concentration of 50 ng/microliter.
Approximately 24 hours prior to transfection cells were seeded into 96 well poly-D-Lysine coated plates (Greiner) using a Multidrop 384 peristaltic pump system (Thermo Electron Corp., Waltham, Mass.) at a density of 7,500 cells per well. A total of 100 ng of DNA (p53–IFP[1] and IFP[2]-p53) was co-transfected using Fugene 6 (Roche) according to the manufacturer's protocol. Cells expressing the PCA pair in the absence of stimulation were incubated with medium containing drugs for 30 minutes, 90 minutes, and 8 hours. Alternatively, cells stimulated with camptothecin (CPT) were pre-treated with drugs for 2 hours, then incubated with 500 nM CPT for an additional 16 hours in the presence of the following test compounds that were known or suspected to affect the p53 pathway: CPT, genistein, Trichostatin A, MS-275, LY294002, SB203580, HA14-1, or Geldanamycin, at the concentrations indicated in the Legend to FIG. 4. […] Fluorescence resulting from IFP PCA was captured using the Discovery-1automated fluorescence imager (Molecular Devices, Inc.) equipped with a robot arm (CRS Catalyst Express; Thermo Electron Corp., Waltham, Mass.). Images were acquired for YFP fluorescence (excitation filter: 480/40 nm; emission filter 535/50 nm), Hoechst fluorescence (excitation filter: 360/40 nm; emission filter 465/30 nm), and Texas Red fluorescence (excitation filter: 560/50 nm; emission filter 650/40 nm). […]
Automated image analysis was performed using Image J freeware to quantitate the level of fluorescence contributed by the PCA in each image. For the p53:p53 PCA, background contributed by cellular auto-fluorescence was subtracted from each image, then the mean pixel fluorescence intensity was determined within the nucleus of each cell. […] Quantitative values for the unstimulated PCA are shown in mauve, with data from the CPT-stimulated assay shown in blue. […]

- effect on the interaction between Chk1 and p53 (mean rate of hydrolysis of BLA substrate) (Chk1/p53 interaction): significant effects
SMILES: Cn1c2ccccc2c2c3c(c4c5ccccc5n(CCC#N)c4c21)CNC3=O [Go6976]

SMILES: Cn1c(=O)[nH]c(=O)c2[nH]cnc21 [3-methylxanthine]
- result in Genesis Plus library screen of p50/p65 PCA (p50/p65 complex): called as hits

SMILES: C=C(C)[C@H]1Cc2c(ccc3c2O[C@@H]2COc4cc(OC)c(OC)cc4[C@@H]2C3=O)O1 [rotenone]
- result in Genesis Plus library screen of p50/p65 PCA (p50/p65 complex): called as hits

SMILES: Nc1ccccc1NC(=O)c1ccc(CNC(=O)OCc2cccnc2)cc1 [MS-275]
- effect on p53/p53 interaction (nuclear mean fluorescence) in the presence of CPT (p53/p53 interaction): significantly stimulated

- effect on the interaction between Chk1 and p53 (mean rate of hydrolysis of BLA substrate) (Chk1/p53 interaction): significant effects
SMILES: NC1=N/C(=C2/CCNC(=O)c3[nH]ccc32)C(=O)N1 [DBH]

SMILES: C[S+]([O-])c1ccc(-c2nc(-c3ccncc3)c(-c3ccc(F)cc3)[nH]2)cc1 (centres unmarked) [SB 203580]
- effect on p53/p53 interaction in both assays (absence and presence of CPT) (p53/p53 interaction): increased association

SMILES: CC(/C=C/C(=O)NO)=C\[C@@H](C)C(=O)c1ccc(N(C)C)cc1 [Trichostatin A]
- effect on p53/p53 interaction (nuclear mean fluorescence) in the presence of CPT (p53/p53 interaction): dramatic increase; also recorded: significantly stimulated
- effect on p53/p53 interaction in both assays (absence and presence of CPT) (p53/p53 interaction): potentiating effect
